Assay results reported in US20230398130A1, “METHODS AND COMPOSITIONS FOR DIFFERENTIATING STEM CELLS” (Massachusetts Institute of Technology, priority 2020, published 2023).

Columns and labels:
ISC-enriched organoids [1] = test: Primary screen, 384-well 2.5-D organoid differentiation (ENR+CD, 6 days): basal lysozyme secretion (LYZ.NS); format: cell-based, murine; details: for Dose.FC.LYZ.NS (log 2 fold change) / Dose.FC.LYZ.NS (log 2 fold change, basal lysozyme secretion): vs plate median
Excerpt: (§1) High-throughput screening.

ISC-enriched organoids [2] = test: Primary screen, 384-well 2.5-D organoid differentiation (ENR+CD, 6 days, Target Selective Inhibitor Library, vs whole-plate median): ATP (CellTiter-Glo 3D, CTG); details: for Dose.FC.CTG (log 2 fold change) / Dose.FC.CTG (log 2 fold change, ATP): vs plate median
ISC-enriched organoids [3] = test: Primary screen, 384-well 2.5-D organoid differentiation (ENR+CD, 6 days): carbachol-induced lysozyme secretion (LYZ.S); format: cell-based, murine; details: vs plate median; for Dose.FC.LYZ.S (log 2 fold change): primary screen
Excerpt: as §1

## SN-38
ISC-enriched organoids [1]; Dose 0.08 uM, primary screen
  Z.LYZ.NS (standard z score): −2.391
  Dose.FC.LYZ.NS (log 2 fold change): −0.275
ISC-enriched organoids [1]; Dose 0.40 uM, primary screen
  Z.LYZ.NS (standard z score): −2.505
  Dose.FC.LYZ.NS (log 2 fold change): −0.288
ISC-enriched organoids [1]; Dose 2.00 uM, primary screen
  Z.LYZ.NS (standard z score): −2.655
  Dose.FC.LYZ.NS (log 2 fold change): −0.305
ISC-enriched organoids [1]; Dose 10.00 uM, primary screen
  Z.LYZ.NS (standard z score): −2.606
  Dose.FC.LYZ.NS (log 2 fold change): −0.299
ISC-enriched organoids [2]; Dose 0.08 uM, primary screen
  Z.CTG (standard z score): −1.720
  Dose.FC.CTG (log 2 fold change): −0.720
ISC-enriched organoids [2]; Dose 0.40 uM, primary screen
  Z.CTG (standard z score): −2.606
  Dose.FC.CTG (log 2 fold change): −1.091
ISC-enriched organoids [2]; Dose 2.00 uM, primary screen
  Z.CTG (standard z score): −2.929
  Dose.FC.CTG (log 2 fold change): −1.226
ISC-enriched organoids [2]; Dose 10.00 uM, primary screen
  Z.CTG (standard z score): −2.785
  Dose.FC.CTG (log 2 fold change): −1.166
ISC-enriched organoids [3]; Dose 0.08 uM
  Dose.FC.LYZ.S (log 2 fold change): −0.419
ISC-enriched organoids [3]; Dose 0.40 uM
  Dose.FC.LYZ.S (log 2 fold change): −0.402
ISC-enriched organoids [3]; Dose 2.00 uM
  Dose.FC.LYZ.S (log 2 fold change): −0.391
ISC-enriched organoids [3]; Dose 10.00 uM
  Dose.FC.LYZ.S (log 2 fold change): −0.404

## SNS-314 Mesylate
ISC-enriched organoids [1]; Dose 0.08 uM, primary screen
  Z.LYZ.NS (standard z score): −0.620
  Dose.FC.LYZ.NS (log 2 fold change): −0.071
ISC-enriched organoids [1]; Dose 0.40 uM, primary screen
  Z.LYZ.NS (standard z score): −0.515
  Dose.FC.LYZ.NS (log 2 fold change): −0.059
ISC-enriched organoids [1]; Dose 2.00 uM, primary screen
  Z.LYZ.NS (standard z score): −1.111
  Dose.FC.LYZ.NS (log 2 fold change): −0.128
ISC-enriched organoids [1]; Dose 10.00 uM, primary screen
  Z.LYZ.NS (standard z score): −1.109
  Dose.FC.LYZ.NS (log 2 fold change): −0.127
ISC-enriched organoids [2]; Dose 0.08 uM, primary screen
  Z.CTG (standard z score): −1.591
  Dose.FC.CTG (log 2 fold change): −0.666
ISC-enriched organoids [2]; Dose 0.40 uM, primary screen
  Z.CTG (standard z score): −1.857
  Dose.FC.CTG (log 2 fold change): −0.777
ISC-enriched organoids [2]; Dose 2.00 uM, primary screen
  Z.CTG (standard z score): −1.142
  Dose.FC.CTG (log 2 fold change): −0.478
ISC-enriched organoids [2]; Dose 10.00 uM, primary screen
  Z.CTG (standard z score): −1.480
  Dose.FC.CTG (log 2 fold change): −0.620
ISC-enriched organoids [3]; Dose 0.08 uM
  Dose.FC.LYZ.S (log 2 fold change): −0.115
ISC-enriched organoids [3]; Dose 0.40 uM
  Dose.FC.LYZ.S (log 2 fold change): −0.103
ISC-enriched organoids [3]; Dose 2.00 uM
  Dose.FC.LYZ.S (log 2 fold change): −0.133
ISC-enriched organoids [3]; Dose 10.00 uM
  Dose.FC.LYZ.S (log 2 fold change): −0.198

## VU 0364439
ISC-enriched organoids [1]; dose 0.08 uM
  Z.LYZ.NS (standard z score): 0.715
  Dose.FC.LYZ.NS (log 2 fold change, basal lysozyme secretion): 0.082
ISC-enriched organoids [1]; dose 0.40 uM
  Z.LYZ.NS (standard z score): 0.099
  Dose.FC.LYZ.NS (log 2 fold change, basal lysozyme secretion): 0.011
ISC-enriched organoids [1]; dose 2.00 uM
  Z.LYZ.NS (standard z score): 0.089
  Dose.FC.LYZ.NS (log 2 fold change, basal lysozyme secretion): 0.010
ISC-enriched organoids [1]; dose 10.00 uM
  Z.LYZ.NS (standard z score): −0.476
  Dose.FC.LYZ.NS (log 2 fold change, basal lysozyme secretion): −0.055
ISC-enriched organoids [2]; dose 0.08 uM
  Z.CTG (standard z score): 0.058
  Dose.FC.CTG (log 2 fold change, ATP): 0.024
ISC-enriched organoids [2]; dose 0.40 uM
  Z.CTG (standard z score): −0.289
  Dose.FC.CTG (log 2 fold change, ATP): −0.121
ISC-enriched organoids [2]; dose 2.00 uM
  Z.CTG (standard z score): −0.616
  Dose.FC.CTG (log 2 fold change, ATP): −0.258
ISC-enriched organoids [2]; dose 10.00 uM
  Z.CTG (standard z score): 0.022
  Dose.FC.CTG (log 2 fold change, ATP): 0.009
ISC-enriched organoids [3]; dose 0.08 uM
  Dose.FC.LYZ.S (log 2 fold change, carbachol-induced lysozyme secretion): 0.108
ISC-enriched organoids [3]; dose 0.40 uM
  Dose.FC.LYZ.S (log 2 fold change, carbachol-induced lysozyme secretion): 0.124
ISC-enriched organoids [3]; dose 2.00 uM
  Dose.FC.LYZ.S (log 2 fold change, carbachol-induced lysozyme secretion): −0.043
ISC-enriched organoids [3]; dose 10.00 uM
  Dose.FC.LYZ.S (log 2 fold change, carbachol-induced lysozyme secretion): −0.038

## VU 0364770
ISC-enriched organoids [1]; dose 0.08 uM
  Z.LYZ.NS (standard z score): 1.350
  Dose.FC.LYZ.NS (log 2 fold change, basal lysozyme secretion): 0.155
ISC-enriched organoids [1]; dose 0.40 uM
  Z.LYZ.NS (standard z score): 0.736
  Dose.FC.LYZ.NS (log 2 fold change, basal lysozyme secretion): 0.085
ISC-enriched organoids [1]; dose 2.00 uM
  Z.LYZ.NS (standard z score): 1.020
  Dose.FC.LYZ.NS (log 2 fold change, basal lysozyme secretion): 0.117
ISC-enriched organoids [1]; dose 10.00 uM
  Z.LYZ.NS (standard z score): 0.884
  Dose.FC.LYZ.NS (log 2 fold change, basal lysozyme secretion): 0.102
ISC-enriched organoids [2]; dose 0.08 uM
  Z.CTG (standard z score): 0.031
  Dose.FC.CTG (log 2 fold change, ATP): 0.013
ISC-enriched organoids [2]; dose 0.40 uM
  Z.CTG (standard z score): 0.204
  Dose.FC.CTG (log 2 fold change, ATP): 0.085
ISC-enriched organoids [2]; dose 2.00 uM
  Z.CTG (standard z score): 0.199
  Dose.FC.CTG (log 2 fold change, ATP): 0.083
ISC-enriched organoids [2]; dose 10.00 uM
  Z.CTG (standard z score): −0.246
  Dose.FC.CTG (log 2 fold change, ATP): −0.103
ISC-enriched organoids [3]; dose 0.08 uM
  Dose.FC.LYZ.S (log 2 fold change, carbachol-induced lysozyme secretion): 0.082
ISC-enriched organoids [3]; dose 0.40 uM
  Dose.FC.LYZ.S (log 2 fold change, carbachol-induced lysozyme secretion): 0.125
ISC-enriched organoids [3]; dose 2.00 uM
  Dose.FC.LYZ.S (log 2 fold change, carbachol-induced lysozyme secretion): 0.139
ISC-enriched organoids [3]; dose 10.00 uM
  Dose.FC.LYZ.S (log 2 fold change, carbachol-induced lysozyme secretion): 0.066
